Reference: patent publication US9034882B2, “Inhibitors of human immunodeficiency virus replication” (priority 2012, dated 2015)
Read-outs that look alike come from different tables or passages of the source.

System: recombinant NL-Rluc virus
Test: Inhibition of HIV replication (NL-RLuc luciferase reporter virus in MT-2 cells)
Type: cell-based
Settings: Human immunodeficiency virus 1, MT2, 120 h

Structure (SMILES): Cc1nc2cc(-c3ccccc3)nn2c(N2CCCCC2C)c1C(OC(C)(C)C)C(=O)O (stereo not shown) [Example 19]
- EC50 (read-out: Activity): 0.1 to 1 µM

Structure (SMILES): Cc1nc2nc(-c3cccc(-c4ccccc4)c3)nn2c(N2CCC(C)(C)CC2)c1[C@H](OC(C)(C)C)C(=O)O [Example 42, (S)-2-(2-([1,1′-Biphenyl]-3-yl)-7-(4,4-dimethylpiperidin-1-yl)-5-methyl-[1,2,4]triazolo[1,5-a]pyrimidin-6-yl)-2-(tert-butoxy)acetic acid]
- EC50 (read-out: Activity): < 0.1 µM
- EC50 (read-out: EC50 μM): 0.05 µM

Structure (SMILES): Cc1nc2cc(-c3ccc4c(c3)CCCC4)nn2c(N2CCC(C)(C)CC2)c1[C@H](OC(C)(C)C)C(=O)O [Example 33, (S)-2-(tert-Butoxy)-2-(7-(4,4-dimethylpiperidin-1-yl)-5-methyl-2-(5,6,7,8-tetrahydronaphthalen-2-yl)pyrazolo[1,5-a]pyrimidin-6-yl)acetic acid]
- EC50 (read-out: Activity): 0.1 to 1 µM

Structure (SMILES): Cc1nc2cc(-c3cccc(-c4ccccc4F)c3)nn2c(N2CCC(C)(C)CC2)c1[C@H](OC(C)(C)C)C(=O)O [Example 52, (S)-2-(tert-Butoxy)-2-(7-(4,4-dimethylpiperidin-1-yl)-2-(2′-fluoro-[1,1′-biphenyl]-3-yl)-5-methylpyrazolo[1,5-a]pyrimidin-6-yl)acetic acid]
- EC50 (read-out: Activity): < 0.1 µM
- EC50 (read-out: EC50 μM): 0.05 µM

Structure (SMILES): Cc1nc2cc(-c3ccccc3)nn2c(N2CCC(C(N)=O)CC2)c1C(OC(C)(C)C)C(=O)O (stereo not shown) [Example 24]
- EC50 (read-out: Activity): > 1 µM

Structure (SMILES): Cc1nc2cc(-c3ccccc3)nn2c(N2CCC3(CCCC3)CC2)c1[C@H](OC(C)(C)C)C(=O)O [Example 27, (S)-2-(tert-butoxy)-2-(5-methyl-2-phenyl-7-(8-azaspiro[4.5]decan-8-yl)pyrazolo[1,5-a]pyrimidin-6-yl) acetic acid]
- EC50 (read-out: Activity): > 1 µM

Structure (SMILES): CCC1(C)CCN(c2c([C@H](OC(C)(C)C)C(=O)O)c(C)nc3cc(-c4ccccc4)nn23)CC1 [Example 29, (S)-2-(tert-butoxy)-2-(7-(4-ethyl-4-methylpiperidin-1-yl)-5-methyl-2-phenylpyrazolo[1,5-a]pyrimidin-6-yl)acetic acid]
- EC50 (read-out: Activity): 0.1 to 1 µM

Structure (SMILES): Cc1nc2cc(-c3cccc(-c4ccc5cnn(C)c5c4)c3)nn2c(N2CCC3(CC2)CC3)c1[C@H](OC(C)(C)C)C(=O)O [Example 60, (S)-2-(tert-Butoxy)-2-(5-methyl-2-(3-(1-methyl-1H-indazol-6-yl)phenyl)-7-(6-azaspiro[2.5]octan-6-yl)pyrazolo[1,5-a]pyrimidin-6-yl)acetic acid]
- EC50 (read-out: Activity): < 0.1 µM

Structure (SMILES): Cc1nc2nc(-c3ccccc3)nn2c(N2CCC(C)(C)CC2)c1C(OC(C)(C)C)C(=O)O (stereo not shown) [Example 37, 2-tert-Butoxy-2-(7-(4,4-dimethylpiperidin-1-yl)-5-methyl-2-phenyl-[1,2,4]triazolo[1,5-a]pyrimidin-6-yl)acetic acid]
- EC50 (read-out: Activity): 0.1 to 1 µM
- EC50 (read-out: EC50 μM): 0.24 µM

Structure (SMILES): Cc1nc2cc(-c3ccccc3)nn2c(N2CCC(F)CC2)c1C(OC(C)(C)C)C(=O)O (stereo not shown) [Example 12]
- EC50 (read-out: Activity): > 1 µM

Structure (SMILES): COc1ccccc1-c1cccc(-c2cc3nc(C)c([C@H](OC(C)(C)C)C(=O)O)c(N4CCC(C)(C)CC4)n3n2)c1 [Example 59, (S)-2-(tert-Butoxy)-2-(7-(4,4-dimethylpiperidin-1-yl)-2-(2′-methoxy-[1,1′-biphenyl]-3-yl)-5-methylpyrazolo[1,5-a]pyrimidin-6-yl)acetic acid]
- EC50 (read-out: Activity): < 0.1 µM
- EC50 (read-out: EC50 μM): 0.015 µM

Structure (SMILES): Cc1nc2cc(-c3cccc(Cc4ccccc4)n3)nn2c(N2CCC(C)(C)CC2)c1[C@H](OC(C)(C)C)C(=O)O [Example 70, (S)-2-(2-(6-Benzylpyridin-2-yl)-7-(4,4-dimethylpiperidin-1-yl)-5-methylpyrazolo[1,5-a]pyrimidin-6-yl)-2-(tert-butoxy)acetic acid]
- EC50 (read-out: Activity): 0.1 to 1 µM

Structure (SMILES): Cc1nc2cc(-c3ccccc3)nn2c(N2CCC(C)CC2)c1C(OC(C)(C)C)C(=O)O (stereo not shown) [Example 8, 2-(tert-butoxy)-2-(5-methyl-7-(4-methylpiperidin-1-yl)-2-phenylpyrazolo[1,5a]pyrimidin-6-yl)acetic acid]
- EC50 (read-out: Activity): 0.1 to 1 µM
- EC50 (read-out: EC50 μM): 0.72 µM

Structure (SMILES): Cc1nc2cc(-c3ccccc3)nn2c(N2CCc3ccccc3C2)c1C(OC(C)(C)C)C(=O)O (stereo not shown) [Example 3, 2-(tert-butoxy)-2-(7-(3,4-dijydroisoquinolin-2(1H)-yl)-5-methyl-2-phenylpyrazolo[1,5a]pyrimidin-6-yl)acetic acid]
- EC50 (read-out: Activity): > 1 µM

Structure (SMILES): Cc1nc2cc(-c3cccc(-c4ccccc4)c3)nn2c(N2[C@@H]3CCC[C@H]2CC3)c1[C@H](OC(C)(C)C)C(=O)O [Example 43, (S)-2-(2-([1,1′-Biphenyl]-3-yl)-7-((1R,5S)-8-azabicyclo[3.2.1]octan-8-yl)-5-methylpyrazolo[1,5-a]pyrimidin-6-yl)-2-(tert-butoxy)acetic acid]
- EC50 (read-out: Activity): 0.1 to 1 µM
- EC50 (read-out: EC50 μM): 0.78 µM

Structure (SMILES): Cc1ccccc1-c1cccc(-c2cc3nc(C)c([C@H](OC(C)(C)C)C(=O)O)c(N4CCC(C)(C)CC4)n3n2)c1 [Example 58, (S)-2-(tert-Butoxy)-2-(7-(4,4-dimethylpiperidin-1-yl)-5-methyl-2-(2′-methyl-[1,1′-biphenyl]-3-yl)pyrazolo[1,5-a]pyrimidin-6-yl)acetic acid]
- EC50 (read-out: Activity): < 0.1 µM

Structure (SMILES): Cc1nc2cc(-c3ccccc3)nn2c(N2CCC(O)CC2)c1C(OC(C)(C)C)C(=O)O (stereo not shown) [Example 15]
- EC50 (read-out: Activity): > 1 µM

Structure (SMILES): Cc1nc2cc(-c3cccc(-c4ccccc4)c3)nn2c(N2C3CCCC2COC3)c1[C@H](OC(C)(C)C)C(=O)O [Example 48, (2S)-2-(2-([1,1′-Biphenyl]-3-yl)-7-(3-oxa-9-azabicyclo[3.3.1]nonan-9-yl)-5-methylpyrazolo[1,5-a]pyrimidin-6-yl)-2-(tert-butoxy)acetic acid]
- EC50 (read-out: Activity): > 1 µM

Structure (SMILES): Cc1nc2cc(-c3ccccc3)nn2c(N2Cc3ccccc3C2)c1C(OC(C)(C)C)C(=O)O (stereo not shown) [Example 5, 2-(tert-butoxy)-2-(7-(isoindolin-2-yl)-5-methyl-2-phenylpyrazolo[1,5a]pyrimidin-6-yl)acetic acid]
- EC50 (read-out: Activity): > 1 µM

Structure (SMILES): Cc1nc2cc(-c3ccccc3)nn2c(N2CCC(C(C)(C)C)CC2)c1C(OC(C)(C)C)C(=O)O (stereo not shown) [Example 17]
- EC50 (read-out: Activity): > 1 µM

Structure (SMILES): Cc1nc2cc(-c3cccc(-c4ccccc4)c3)nn2c(N2CCOC(C)(C)C2)c1[C@H](OC(C)(C)C)C(=O)O [Example 49, (S)-2-(2-([1,1′-Biphenyl]-3-yl)-7-(2,2-dimethylmorpholino)-5-methylpyrazolo[1,5-a]pyrimidin-6-yl)-2-(tert-butoxy)acetic acid]
- EC50 (read-out: Activity): 0.1 to 1 µM

Structure (SMILES): Cc1nc2cc(-c3cccc(OCc4ccccc4)n3)nn2c(N2CCC(C)(C)CC2)c1[C@H](OC(C)(C)C)C(=O)O [Example 69, (S)-2-(2-(6-(Benzyloxy)pyridin-2-yl)-7-(4,4-dimethylpiperidin-1-yl)-5-methylpyrazolo[1,5-a]pyrimidin-6-yl)-2-(tert-butoxy)acetic acid]
- EC50 (read-out: Activity): 0.1 to 1 µM
- EC50 (read-out: EC50 μM): 0.19 µM

Structure (SMILES): Cc1nc2nc(-c3ccccc3)nn2c(N2CC[C@H]3CCCC[C@H]3C2)c1C(OC(C)(C)C)C(=O)O (stereo partly drawn) [Example 39, 2-(tert-Butoxy)-2-(5-methyl-7-((4aR,8aR)-octahydroisoquinolin-2(1H)-yl)-2-phenyl-[1,2,4]triazolo[1,5-a]pyrimidin-6-yl)acetic acid]
- EC50 (read-out: Activity): 0.1 to 1 µM

Structure (SMILES): Cc1nc2cc(-c3ccccc3)nn2c(N2CC[C@@H]3CCCC[C@@H]3C2)c1C(OC(C)(C)C)C(=O)O (stereo partly shown) [Example 14]
- EC50 (read-out: Activity): 0.1 to 1 µM
